Data as given in patent US20260001928A1 (CORTERIA PHARMACEUTICALS, priority 2022, published 2026).
*1 amine or outer side, *2 acyl side, *3 side chain or, on linkers, in order; H or OH if unused. Where a SMILES comes first, the peptide text is derived from it. Side-chain parts run from the residue outwards. [ ]: non-standard residue; d: D form. The star is where a group is joined. γGlu = O=C(O)[C@H](CCC(=O)[*:2])N[*:1]; C14 diacid = O=C(O)CCCCCCCCCCCCC(=O)*; NMeI = CC[C@H](C)[C@H](NC)C(=O)O; Api = NC1(C(=O)O)CCNCC1; AEEA = NCCOCCOCC(=O)O; Aib = CC(C)(N)C(=O)O

Key:
[1] = molecular target: T1, human CRF2a receptor (Homo sapiens, UniProt Q13324); assay: Activity at human CRF2a receptor, cAMP functional assay in TeloHEAC cells; type: cell-based; conditions: TeloHEAC cells stably expressing human CRF2a receptor, relative to urocortin 2 (100 nM = 100%)
T1 construct: expressed in transfected cells; host or cells: TeloHEAC cells
T1 sequence (Q13324 1-411): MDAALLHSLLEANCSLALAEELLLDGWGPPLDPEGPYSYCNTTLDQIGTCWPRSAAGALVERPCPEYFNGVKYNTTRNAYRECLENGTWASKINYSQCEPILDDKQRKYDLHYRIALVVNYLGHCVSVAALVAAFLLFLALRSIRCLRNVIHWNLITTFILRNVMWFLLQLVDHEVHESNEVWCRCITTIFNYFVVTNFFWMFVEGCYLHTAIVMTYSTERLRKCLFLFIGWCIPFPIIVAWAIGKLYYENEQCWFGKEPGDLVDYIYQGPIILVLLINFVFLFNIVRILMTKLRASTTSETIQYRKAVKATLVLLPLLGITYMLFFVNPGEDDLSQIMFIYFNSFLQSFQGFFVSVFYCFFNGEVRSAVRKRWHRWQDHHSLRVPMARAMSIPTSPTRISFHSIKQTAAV
Summary of the method: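 TeloHEAC cells stably expressing human CRF2a (10000 cells/well, suspended in HBSS/20 mM HEPES with 2 mM IBMX) were exposed to compounds for 30 min at 37 °C. cAMP was read as the 665/620 nm fluorescence ratio after 1 h at room temperature. EC50 was derived relative to 100 nM urocortin 2, set as 100%.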

[2] = molecular target: T2, CFR1R receptor (Homo sapiens, UniProt P34998); assay: Activity at anti-target CFR1R receptor, cAMP assay in CRF1R-overexpression CHO-K1 cells; type: cell-based; conditions: 100% = Sauvagine at 100 nM; for EC50: cAMP
T2 construct: host or cells: CHO-K1 (clone 2)
T2 sequence (P34998 24-415): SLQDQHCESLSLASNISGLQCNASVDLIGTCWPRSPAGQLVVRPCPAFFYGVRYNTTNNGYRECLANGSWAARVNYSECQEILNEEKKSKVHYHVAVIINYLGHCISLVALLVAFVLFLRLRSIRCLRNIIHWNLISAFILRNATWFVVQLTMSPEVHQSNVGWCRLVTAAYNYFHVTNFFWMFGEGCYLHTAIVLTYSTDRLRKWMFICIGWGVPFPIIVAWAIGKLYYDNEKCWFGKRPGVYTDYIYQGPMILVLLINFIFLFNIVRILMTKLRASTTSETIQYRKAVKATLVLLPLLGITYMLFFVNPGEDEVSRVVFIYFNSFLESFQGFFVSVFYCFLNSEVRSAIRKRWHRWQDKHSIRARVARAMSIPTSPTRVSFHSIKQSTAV
Summary of the method: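 cAMP readout in CRF1R-overexpressing CHO-K1 cells (clone 2), run as for the TeloHAEC assay at 4000 cells/well final. Cells came from cryopreserved banks. Sauvagine at 100 nM defined 100% activation.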

EC50 [1] [nM] | Emax (% I) [2] [% I] | EC50 [2] [nM] | SMILES
18.9 | 5 | > 250 | CC[C@H](C)[C@H](NC(C)=O)C(=O)N[C@H](C(=O)N[C@@H](CC(C)C)C(=O)N[C@@H](CO)C(=O)N[C@@H](CC(C)C)C(=O)N[C@@H](CC(=O)O)C(=O)N[C@@H](C(=O)N1CCC[C@H]1C(=O)N[C@H](C(=O)N[C@@H](CCCCN)C(=O)N[C@@H](CC(C)C)C(=O)N[C@@H](CCCCNC(=O)COCCOCCNC(=O)COCCOCCNC(=O)CC[C@H](NC(=O)CC[C@H](NC(=O)CCCCCCCCCCCCC(=O)O)C(=O)O)C(=O)O)C(=O)N[C@@H](CCCCN)C(=O)N[C@H](C(=O)N[C@@H](CC(C)C)C(=O)N[C@@H](CC(C)C)C(=O)N[C@@H](CCC(=O)O)C(=O)N[C@@H](CCC(N)=O)C(=O)N[C@@H](CCC(=O)O)C(=O)N[C@@H](CCCCN)C(=O)N[C@@H](CCC(N)=O)C(=O)N[C@@H](CCCCN)C(=O)N[C@@H](CCCCN)C(=O)N[C@@H](CCC(N)=O)C(=O)N[C@@H](CCCNC(=N)N)C(=O)N[C@@H](CCC(=O)O)C(=O)N[C@@H](CCC(N)=O)C(=O)N[C@@H](C)C(=O)N[C@@H](CCC(=O)O)C(=O)N[C@H](C(=O)N[C@@H](CC(N)=O)C(=O)NC1(C(=O)N[C@@H](CCC(N)=O)C(=O)N[C@H](C(=O)N[C@@H](CC(C)C)C(=O)N[C@@H](C)C(=O)N[C@@H](CCC(N)=O)C(=O)N[C@H](C(N)=O)C(C)C)[C@@H](C)CC)CCNCC1)[C@@H](C)O)[C@@H](C)CC)[C@@H](C)CC)C(C)C)C(C)C [compound 175] (Ac-IVLSLD[dV]PIKLK([AEEA-AEEA-γGlu-γGlu-C14 diacid])KILLEQEKQKKQREQAETN[Api]QILAQV-NH2)
0.99 | 8 | > 250 | CC[C@H](C)[C@H](NC)C(=O)N[C@H](C(=O)N[C@@H](CC(C)C)C(=O)N[C@@H](CO)C(=O)N[C@@H](CC(C)C)C(=O)N[C@@H](CC(=O)O)C(=O)N[C@@H](C(=O)N1CCC[C@H]1C(=O)N[C@H](C(=O)N[C@@H](CCCCN)C(=O)N[C@@H](CC(C)C)C(=O)N[C@@H](CCCCNC(=O)CC[C@H](NC(=O)CCCCCCCCCCCCC(=O)O)C(=O)O)C(=O)N[C@@H](CCCCN)C(=O)N[C@H](C(=O)N[C@@H](CC(C)C)C(=O)N[C@@H](CC(C)C)C(=O)N[C@@H](CCC(=O)O)C(=O)N[C@@H](CCC(N)=O)C(=O)N[C@@H](CCC(=O)O)C(=O)N[C@@H](CCCCN)C(=O)N[C@@H](CCC(N)=O)C(=O)N[C@@H](CCCCN)C(=O)N[C@@H](C)C(=O)N[C@@H](CCC(N)=O)C(=O)N[C@@H](CCCNC(=N)N)C(=O)N[C@@H](CCC(=O)O)C(=O)N[C@@H](CCC(N)=O)C(=O)N[C@@H](C)C(=O)N[C@@H](CCC(=O)O)C(=O)N[C@H](C(=O)N[C@@H](CC(N)=O)C(=O)NC(C)(C)C(=O)N[C@@H](CCC(N)=O)C(=O)N[C@H](C(=O)N[C@@H](CC(C)C)C(=O)N[C@@H](C)C(=O)N[C@@H](CCC(N)=O)C(=O)N[C@H](C(N)=O)C(C)C)[C@@H](C)CC)[C@@H](C)O)[C@@H](C)CC)[C@@H](C)CC)C(C)C)C(C)C [compound 176] (H-[NMeI]VLSLD[dV]PIKLK([γGlu-C14 diacid])KILLEQEKQKAQREQAETN[Aib]QILAQV-NH2)
0.86 | 10 | > 250 | CC[C@H](C)[C@H](NC)C(=O)N[C@H](C(=O)N[C@@H](CC(C)C)C(=O)N[C@@H](CO)C(=O)N[C@@H](CC(C)C)C(=O)N[C@@H](CC(=O)O)C(=O)N[C@@H](C(=O)N1CCC[C@H]1C(=O)N[C@H](C(=O)N[C@@H](CCCCN)C(=O)N[C@@H](CC(C)C)C(=O)N[C@@H](CCCCNC(=O)CC[C@H](NC(=O)CCCCCCCCCCCCC(=O)O)C(=O)O)C(=O)N[C@@H](CCCCN)C(=O)N[C@H](C(=O)N[C@@H](CC(C)C)C(=O)N[C@@H](CC(C)C)C(=O)N[C@@H](CCC(=O)O)C(=O)N[C@@H](CCC(N)=O)C(=O)N[C@@H](CCC(=O)O)C(=O)N[C@@H](CCCCN)C(=O)N[C@@H](CCC(N)=O)C(=O)N[C@@H](CCCCN)C(=O)NC(C)(C)C(=O)N[C@@H](CCC(N)=O)C(=O)N[C@@H](CCCNC(=N)N)C(=O)N[C@@H](CCC(=O)O)C(=O)N[C@@H](CCC(N)=O)C(=O)N[C@@H](C)C(=O)N[C@@H](CCC(=O)O)C(=O)N[C@H](C(=O)N[C@@H](CC(N)=O)C(=O)NC(C)(C)C(=O)N[C@@H](CCC(N)=O)C(=O)N[C@H](C(=O)N[C@@H](CC(C)C)C(=O)N[C@@H](C)C(=O)N[C@@H](CCC(N)=O)C(=O)N[C@H](C(N)=O)C(C)C)[C@@H](C)CC)[C@@H](C)O)[C@@H](C)CC)[C@@H](C)CC)C(C)C)C(C)C [compound 177] (H-[NMeI]VLSLD[dV]PIKLK([γGlu-C14 diacid])KILLEQEKQK[Aib]QREQAETN[Aib]QILAQV-NH2)
6.5 | 1 | > 250 | CC[C@H](C)[C@H](NC)C(=O)N[C@H](C(=O)N[C@@H](CC(C)C)C(=O)N[C@@H](CO)C(=O)N[C@@H](CC(C)C)C(=O)N[C@@H](CC(=O)O)C(=O)N[C@@H](C(=O)N1CCC[C@H]1C(=O)N[C@H](C(=O)N[C@@H](CCCCN)C(=O)N[C@@H](CC(C)C)C(=O)N[C@@H](CCCCNC(=O)COCCOCCNC(=O)COCCOCCNC(=O)CC[C@H](NC(=O)CCCCCCCCCCCCC(=O)O)C(=O)O)C(=O)N[C@@H](CCCCN)C(=O)N[C@H](C(=O)N[C@@H](CC(C)C)C(=O)N[C@@H](CC(C)C)C(=O)N[C@@H](CCC(=O)O)C(=O)N[C@@H](CCC(N)=O)C(=O)N[C@@H](CCC(=O)O)C(=O)N[C@@H](CCCCN)C(=O)N[C@@H](CCC(N)=O)C(=O)N[C@@H](CCCCN)C(=O)N[C@@H](CCCCN)C(=O)N[C@@H](CCC(N)=O)C(=O)N[C@@H](CCCNC(=N)N)C(=O)N[C@@H](CCC(=O)O)C(=O)N[C@@H](CCC(N)=O)C(=O)N[C@@H](C)C(=O)N[C@@H](CCC(=O)O)C(=O)N[C@H](C(=O)N[C@@H](CC(N)=O)C(=O)NC(C)(C)C(=O)N[C@@H](CCC(N)=O)C(=O)N[C@H](C(=O)N[C@@H](CC(C)C)C(=O)N[C@@H](C)C(=O)N[C@@H](CCC(N)=O)C(=O)N[C@H](C(N)=O)C(C)C)[C@@H](C)CC)[C@@H](C)O)[C@@H](C)CC)[C@@H](C)CC)C(C)C)C(C)C [compound 178] (H-[NMeI]VLSLD[dV]PIKLK([AEEA-AEEA-γGlu-C14 diacid])KILLEQEKQKKQREQAETN[Aib]QILAQV-NH2)
